Test results: ChEMBL document CHEMBL5442741, “ASAP - In vitro kinase profile” (2024)
“And” between values parts separate entries of the source, which are not always exact repeats. Identical values can stand only once.

Experiments:
[1] = target: Casein kinase II subunit alpha' (Homo sapiens) (UniProt P19784); test: Enzymatic radiometric [Km ATP] KinaseProfiler LeadHunter assay, kinase: CK2-alpha2, catalogue number: 14-689KP The assay has been performed by Eurofins Discovery.; details: ATP concentration 10.0 uM, Test compound concentration 10.0 uM
Chain of Casein kinase II subunit alpha' (Homo sapiens) (P19784 whole entry, looked up): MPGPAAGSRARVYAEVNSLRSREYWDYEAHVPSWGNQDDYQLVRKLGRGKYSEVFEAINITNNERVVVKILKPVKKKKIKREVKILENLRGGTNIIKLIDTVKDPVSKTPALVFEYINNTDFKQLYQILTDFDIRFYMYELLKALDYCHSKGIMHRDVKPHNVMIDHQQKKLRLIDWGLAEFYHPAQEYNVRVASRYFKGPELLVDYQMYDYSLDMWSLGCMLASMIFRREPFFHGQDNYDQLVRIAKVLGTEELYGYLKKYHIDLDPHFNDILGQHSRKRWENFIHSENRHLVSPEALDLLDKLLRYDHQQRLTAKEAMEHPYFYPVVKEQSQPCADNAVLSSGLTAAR

[2] = target: Tyrosine-protein kinase Fyn (Homo sapiens) (UniProt P06241); test: Enzymatic radiometric [Km ATP] KinaseProfiler LeadHunter assay, kinase: Fyn, catalogue number: 14-441KP The assay has been performed by Eurofins Discovery.; details: ATP concentration 70.0 uM, Test compound concentration 10.0 uM
Chain of Tyrosine-protein kinase Fyn (Homo sapiens) (P06241 2-537 limits assumed): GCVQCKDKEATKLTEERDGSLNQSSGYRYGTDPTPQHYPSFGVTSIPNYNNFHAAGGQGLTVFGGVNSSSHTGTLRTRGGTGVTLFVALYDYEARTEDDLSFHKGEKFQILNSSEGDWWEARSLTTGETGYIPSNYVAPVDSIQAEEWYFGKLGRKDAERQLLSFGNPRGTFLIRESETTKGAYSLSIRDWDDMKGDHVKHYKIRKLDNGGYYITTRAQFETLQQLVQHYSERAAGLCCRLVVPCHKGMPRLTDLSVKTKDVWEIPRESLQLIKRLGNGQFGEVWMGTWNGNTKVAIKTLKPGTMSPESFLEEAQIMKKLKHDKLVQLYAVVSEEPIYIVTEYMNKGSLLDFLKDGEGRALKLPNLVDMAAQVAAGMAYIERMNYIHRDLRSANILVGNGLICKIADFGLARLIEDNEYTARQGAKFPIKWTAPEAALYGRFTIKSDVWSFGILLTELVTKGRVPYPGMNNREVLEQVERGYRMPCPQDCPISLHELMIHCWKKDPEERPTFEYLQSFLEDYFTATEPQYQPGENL

[3] = target: PI3-kinase p110-delta/p85-alpha (Homo sapiens) (UniProt P27986+O00329); test: Enzymatic radiometric [Km ATP] KinaseProfiler LeadHunter assay, kinase: PI3 Kinase (p110-delta/p85-alpha), catalogue number: 14-604KP The assay has been performed by Eurofins Discovery.; assay type: protein-complex assay; details: ATP concentration 200.0 uM, Test compound concentration 10.0 uM
[4] = target: Casein kinase I isoform gamma-1 (Homo sapiens) (UniProt Q9HCP0); test: Enzymatic radiometric [Km ATP] KinaseProfiler LeadHunter assay, kinase: CK1-gamma1, catalogue number: 14-711KP The assay has been performed by Eurofins Discovery.; details: ATP concentration 15.0 uM, Test compound concentration 10.0 uM
Chain of Casein kinase I isoform gamma-1 (Homo sapiens) (Q9HCP0 whole entry, looked up, canonical isoform): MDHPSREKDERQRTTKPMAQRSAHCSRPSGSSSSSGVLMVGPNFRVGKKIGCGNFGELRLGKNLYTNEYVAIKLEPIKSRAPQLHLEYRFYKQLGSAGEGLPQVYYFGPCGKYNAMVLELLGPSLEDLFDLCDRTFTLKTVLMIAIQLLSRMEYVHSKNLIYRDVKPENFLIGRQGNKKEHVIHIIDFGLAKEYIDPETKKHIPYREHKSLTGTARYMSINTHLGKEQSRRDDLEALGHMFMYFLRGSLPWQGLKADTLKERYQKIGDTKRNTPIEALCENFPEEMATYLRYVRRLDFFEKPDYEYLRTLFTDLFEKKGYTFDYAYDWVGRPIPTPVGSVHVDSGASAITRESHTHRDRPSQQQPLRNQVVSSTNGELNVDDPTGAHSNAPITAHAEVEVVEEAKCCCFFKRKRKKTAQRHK

[5] = target: T1, Serine/threonine-protein kinase 17A (Homo sapiens) (UniProt Q9UEE5); test: Enzymatic radiometric [Km ATP] KinaseProfiler LeadHunter assay, kinase: DRAK1, catalogue number: 14-668KP The assay has been performed by Eurofins Discovery.; details: ATP concentration 10.0 uM, Test compound concentration 10.0 uM
T1 sequence (whole entry): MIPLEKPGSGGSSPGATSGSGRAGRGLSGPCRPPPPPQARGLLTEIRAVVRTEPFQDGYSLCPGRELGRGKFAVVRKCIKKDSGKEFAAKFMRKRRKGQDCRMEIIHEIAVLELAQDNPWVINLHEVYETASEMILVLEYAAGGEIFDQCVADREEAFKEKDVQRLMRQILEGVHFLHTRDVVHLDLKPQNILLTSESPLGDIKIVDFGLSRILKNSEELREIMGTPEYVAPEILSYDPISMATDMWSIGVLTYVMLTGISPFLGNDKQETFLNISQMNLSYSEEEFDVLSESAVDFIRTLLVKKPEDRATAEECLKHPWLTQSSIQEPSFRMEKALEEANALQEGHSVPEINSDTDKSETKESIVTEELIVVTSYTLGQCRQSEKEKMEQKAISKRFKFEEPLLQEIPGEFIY

[6] = target: T2, cGMP-dependent protein kinase 1 (Homo sapiens) (UniProt Q13976); test: Enzymatic radiometric [Km ATP] KinaseProfiler LeadHunter assay, kinase: PKG1-alpha, catalogue number: 14-688KP The assay has been performed by Eurofins Discovery.; details: ATP concentration 90.0 uM, Test compound concentration 10.0 uM
T2 sequence (whole entry): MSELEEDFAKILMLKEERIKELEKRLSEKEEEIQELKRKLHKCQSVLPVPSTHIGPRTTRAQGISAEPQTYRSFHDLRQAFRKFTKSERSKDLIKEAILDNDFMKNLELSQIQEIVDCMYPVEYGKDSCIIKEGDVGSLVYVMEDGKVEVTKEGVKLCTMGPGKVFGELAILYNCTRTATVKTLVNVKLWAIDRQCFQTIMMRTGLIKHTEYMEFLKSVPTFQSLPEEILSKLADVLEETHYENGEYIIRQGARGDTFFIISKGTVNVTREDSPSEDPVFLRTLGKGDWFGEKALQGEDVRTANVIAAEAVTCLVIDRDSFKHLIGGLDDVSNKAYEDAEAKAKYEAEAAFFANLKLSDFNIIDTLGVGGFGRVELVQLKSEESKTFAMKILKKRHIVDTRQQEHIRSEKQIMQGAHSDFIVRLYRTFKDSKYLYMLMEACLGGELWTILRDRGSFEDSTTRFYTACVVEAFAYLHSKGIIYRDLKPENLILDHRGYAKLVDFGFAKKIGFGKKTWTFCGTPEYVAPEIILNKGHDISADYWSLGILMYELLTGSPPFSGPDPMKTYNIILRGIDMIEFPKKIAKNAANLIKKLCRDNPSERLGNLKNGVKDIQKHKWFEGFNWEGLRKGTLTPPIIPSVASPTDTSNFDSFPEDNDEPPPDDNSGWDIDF

[7] = target: Calcium/calmodulin-dependent protein kinase type 1 (Homo sapiens) (UniProt Q14012); test: Enzymatic radiometric [Km ATP] KinaseProfiler LeadHunter assay, kinase: CaMKI, catalogue number: 14-663KP The assay has been performed by Eurofins Discovery.; details: ATP concentration 200.0 uM, Test compound concentration 10.0 uM
Chain of Calcium/calmodulin-dependent protein kinase type 1 (Homo sapiens) (Q14012 whole entry, looked up): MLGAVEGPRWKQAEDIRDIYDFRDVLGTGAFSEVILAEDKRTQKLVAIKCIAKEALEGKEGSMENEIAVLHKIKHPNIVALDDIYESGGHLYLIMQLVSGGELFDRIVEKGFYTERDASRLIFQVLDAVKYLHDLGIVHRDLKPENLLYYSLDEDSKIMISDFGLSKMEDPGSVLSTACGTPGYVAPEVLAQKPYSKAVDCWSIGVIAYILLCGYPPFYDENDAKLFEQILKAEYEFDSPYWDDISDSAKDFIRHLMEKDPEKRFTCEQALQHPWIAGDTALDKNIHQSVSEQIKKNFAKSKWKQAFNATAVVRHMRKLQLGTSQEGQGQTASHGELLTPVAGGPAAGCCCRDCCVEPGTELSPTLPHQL

[8] = target: MAP kinase-interacting serine/threonine-protein kinase 2 (Homo sapiens) (UniProt Q9HBH9); test: Enzymatic radiometric [Km ATP] KinaseProfiler LeadHunter assay, kinase: Mnk2, catalogue number: 14-664KP The assay has been performed by Eurofins Discovery.; details: ATP concentration 120.0 uM, Test compound concentration 10.0 uM
Chain of MAP kinase-interacting serine/threonine-protein kinase 2 (Homo sapiens) (Q9HBH9 whole entry, looked up): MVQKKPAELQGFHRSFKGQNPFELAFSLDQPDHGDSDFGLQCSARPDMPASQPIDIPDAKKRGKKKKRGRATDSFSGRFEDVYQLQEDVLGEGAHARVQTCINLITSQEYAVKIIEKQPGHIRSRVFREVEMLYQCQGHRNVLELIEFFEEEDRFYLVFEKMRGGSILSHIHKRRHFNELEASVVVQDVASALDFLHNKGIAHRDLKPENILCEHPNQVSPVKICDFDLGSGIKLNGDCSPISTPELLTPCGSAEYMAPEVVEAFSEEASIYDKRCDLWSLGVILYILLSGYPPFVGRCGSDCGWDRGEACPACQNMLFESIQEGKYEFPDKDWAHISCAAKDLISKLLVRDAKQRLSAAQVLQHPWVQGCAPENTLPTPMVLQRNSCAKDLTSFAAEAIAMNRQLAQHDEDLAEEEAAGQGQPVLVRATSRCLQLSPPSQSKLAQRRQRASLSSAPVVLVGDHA

[9] = target: Cyclin-dependent kinase 1/cyclin B (Homo sapiens) (UniProt P06493+P14635+Q8WWL7+O95067); test: Enzymatic radiometric [Km ATP] KinaseProfiler LeadHunter assay, kinase: CDK1/cyclinB, catalogue number: 14-450KP The assay has been performed by Eurofins Discovery.; assay type: protein-complex assay; details: ATP concentration 45.0 uM, Test compound concentration 10.0 uM
[10] = target: Mitogen-activated protein kinase 14 (Homo sapiens) (UniProt Q16539); test: Enzymatic radiometric [Km ATP] KinaseProfiler LeadHunter assay, kinase: SAPK2a, catalogue number: 14-251KP The assay has been performed by Eurofins Discovery.; details: ATP concentration 90.0 uM, Test compound concentration 10.0 uM
Chain of Mitogen-activated protein kinase 14 (Homo sapiens) (Q16539 whole entry): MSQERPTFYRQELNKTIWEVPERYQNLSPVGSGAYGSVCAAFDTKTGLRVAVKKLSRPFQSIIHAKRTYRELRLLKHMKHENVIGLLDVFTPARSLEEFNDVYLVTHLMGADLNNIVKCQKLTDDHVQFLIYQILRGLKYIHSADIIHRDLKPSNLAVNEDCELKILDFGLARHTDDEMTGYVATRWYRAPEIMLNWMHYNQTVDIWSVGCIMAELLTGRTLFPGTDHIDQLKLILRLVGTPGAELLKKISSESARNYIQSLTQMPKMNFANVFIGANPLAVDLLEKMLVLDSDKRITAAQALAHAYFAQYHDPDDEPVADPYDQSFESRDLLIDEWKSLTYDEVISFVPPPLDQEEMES

[11] = target: T3, Serine/threonine-protein kinase Nek2 (Homo sapiens) (UniProt P51955); test: Enzymatic radiometric [Km ATP] KinaseProfiler LeadHunter assay, kinase: NEK2, catalogue number: 14-545KP The assay has been performed by Eurofins Discovery.; details: ATP concentration 120.0 uM, Test compound concentration 10.0 uM
T3 sequence (whole entry): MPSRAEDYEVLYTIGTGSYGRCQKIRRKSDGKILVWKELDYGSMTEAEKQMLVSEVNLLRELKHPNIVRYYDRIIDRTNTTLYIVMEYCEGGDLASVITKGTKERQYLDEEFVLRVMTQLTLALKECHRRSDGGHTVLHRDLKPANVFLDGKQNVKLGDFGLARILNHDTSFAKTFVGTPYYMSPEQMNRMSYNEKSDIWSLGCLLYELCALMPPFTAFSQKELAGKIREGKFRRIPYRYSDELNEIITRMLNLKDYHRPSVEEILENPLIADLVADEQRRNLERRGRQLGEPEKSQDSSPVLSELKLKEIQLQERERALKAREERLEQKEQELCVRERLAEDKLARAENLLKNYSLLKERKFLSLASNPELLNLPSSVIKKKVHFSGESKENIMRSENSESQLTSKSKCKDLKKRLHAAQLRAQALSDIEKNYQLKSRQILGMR

| Activity [1] | Activity [2] | Activity [3] | Activity [4] | Activity [5] | Activity [6] | Activity [7] | Activity [8] | Activity [9] | Activity [10] | Activity [11] | Structure (SMILES) |
| --- | --- | --- | --- | --- | --- | --- | --- | --- | --- | --- | --- |
| 88% | 65% | 87% | 97% | 111% | 120% | 101% | 94% | 88% | 103% | 114% | CNC(=O)Cn1cc(-c2cc3c(N[C@@H](c4ccc5c(c4)S(=O)(=O)CCC5)C(C)C)ncnc3[nH]2)cn1 |
| 98% | 107% | 99% | 100% | 105% | 116% | 100% | 99% | 103% | 97% | 118% | CC(C)[C@@H](Nc1ncnc2[nH]c(C(=O)N[C@@H]3CCN(C)C3)cc12)c1ccc2c(c1)S(=O)(=O)CCC2 |
| 90% | 127% | 101% | 102% | 96% | 88% | 94% | 89% | 129% | 108% | 118% | CC(C)[C@@H](Nc1ncnc2[nH]ccc12)c1ccc2c(c1)S(=O)(=O)CCC2 |
| 88% | 105% | 99% | 95% | 111% | 95% | 100% | 84% | 108% | 100% | 100% | COc1ccc([C@@H](Cc2nnn[nH]2)NC(=O)c2ncnc3[nH]ccc23)cc1 |
| 87% | 96% | 99% | 97% | 117% | 123% | 92% | 98% | 93% | 107% | 109% | CC(C)[C@H](Nc1ncnc2[nH]ccc12)c1ccc2c(c1)S(=O)(=O)CCC2 |
| 86% and 93% | 56% and 55% | 55% and 61% | 87% and 99% | 101% and 108% | 100% and 123% | 104% and 95% | 77% and 83% | 95% and 88% | 103% and 101% | 94% and 76% | CC(C)[C@@H](Nc1ncnc2[nH]c(-c3cnn(C)c3C#N)cc12)c1ccc2c(n1)OCCO2 |
| 95% | 80% | 66% | 100% | 105% | 130% | 104% | 95% | 89% | 99% | 105% | CC(C)[C@H](Nc1ncnc2[nH]c(-c3cnn(C)c3C#N)cc12)c1ccc2c(n1)OCCO2 |
| 92% | 82% | 73% | 94% | 108% | 127% | 87% | 100% | 97% | 106% | 104% | Cn1ncc(-c2cc3c(N[C@@H](c4ccc5c(n4)OCCO5)C(C)(C)C)ncnc3[nH]2)c1C#N |
| 90% | 64% | 80% | 99% | 86% | 115% | 87% | 94% | 97% | 97% | 105% | CNCc1cc(-c2cc3c(N[C@@H](c4ccc5c(c4)S(=O)(=O)CCC5)C(C)C)ncnc3[nH]2)co1 |
| 92% | 32% | 101% | 99% | 111% | 128% | 101% | 99% | 91% | 98% | 98% | Cc1nn(C)cc1-c1cc2c(N[C@H](c3ccc4c(c3)S(=O)(=O)CCC4)C(C)C)ncnc2[nH]1 |
| 93% | 102% | 97% | 94% | 111% | 121% |  | 115% | 98% | 103% | 106% | COc1ccc([C@H](Cc2nnn[nH]2)NC(=O)c2ncnc3[nH]ccc23)cc1 |
| 91% | 98% | 97% | 92% | 98% | 118% | 101% | 110% | 92% | 103% | 101% | C[C@H](C(=O)O)[C@@H](NC(=O)c1ncnc2[nH]ccc12)c1ccc(Br)cc1 |
